Here are results for eleven molecules from ChEMBL document CHEMBL1201862, “PubChem BioAssay data set” (2004).

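Interpolation was linear, between the two tested concentrations surrounding the appropriate level; five concentrations were tested over 48 hours in 96-well plates. GI50 marks 50% less growth.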 Calls of active or inactive are those of the source. Rule as the data show it: active = GI50 up to about 1.1 µM and inactive = higher. Residues, ends and D or L forms follow the SMILES beside them. *: point of attachment. Boc = CC(C)(C)OC(=O)*; Bz = O=C(c1ccccc1)*

Common to all, as to assay: NCI-60 cell line screen, 48 h
Experiment [1] has as its system M14.
The test system of experiment [2] is UO-31.
Experiment [3] deals with SF-539.
The test system of experiment [4] is DU-145.
The subject of experiment [5] is SNB-75.
Experiment [6] relates to SW-620.
The test system of experiment [7] is KM12.
Experiment [8] has as its system MDA-MB-231.
Experiment [9] deals with LOX IMVI.
Experiment [10] relates to SN12C.
In experiment [11] the test system is NCI/ADR-RES.
Experiment [12] deals with CAKI-1.
Experiment [13] concerns 786-0.
Experiment [14] relates to HOP-92.
Experiment [15] concerns OVCAR-4.
For experiment [16], the system named is SF-295.
Experiment [17] deals with ACHN.
Experiment [18] concerns MCF7.
The test system of experiment [19] is SR.
For experiment [20], the system named is HL-60.

Take `COC(=O)C1=C(CCC[C@H](C)O[Si](C)(C)C(C)(C)C)NC(=O)N2[C@@H](CCO)CC[C@H]12`: the GI50 in experiment [1] is 16.3 µM (inactive); in experiment [2] it was 15.6 µM (inactive); in experiment [3], 16.7 µM (inactive); in experiment [4], 19.1 µM (inactive); in experiment [5], 15.7 µM (inactive); in experiment [6] it was 20.1 µM (inactive). In addition, the GI50 in experiment [7] was 18.3 µM (inactive); in [8], 16.2 µM (inactive); in experiment [9], 16.9 µM (inactive); in [10], 15 µM (inactive); in experiment [11] it was 13.9 µM (inactive); in [12], 17.2 µM (inactive). For the same molecule, the GI50 in experiment [13] was 14.5 µM (inactive); in experiment [14], 14.2 µM (inactive); in [15], 16.5 µM (inactive); in experiment [16], 11.7 µM (inactive); in experiment [17], 16.2 µM (inactive).
Regarding `O=C1c2ccccc2-c2nc3ccc(O)cc3n21`, the GI50 was > 100 µM (inactive) in experiment [1]; > 100 µM (inactive) in experiment [2]; > 100 µM (inactive) in experiment [3]; > 100 µM (inactive) in experiment [4]; 34.1 µM (inactive) in experiment [5]; > 100 µM (inactive) in [6]. Further, the GI50 in [7], in [18], in experiment [10], in experiment [11], in experiment [19] and in experiment [12] was > 100 µM (inactive) throughout. The GI50 in experiment [13], in experiment [20], in experiment [14], in [15], in experiment [16] and in [17] was > 100 µM (inactive) in each case.
Take `S=C(N1CCN(c2ccccc2)CC1)N1CCN(c2ccccc2)CC1`: the GI50 in experiment [1] is > 100 µM (inactive); in [2], > 100 µM (inactive); in experiment [4], > 100 µM (inactive); in [5], 27.2 µM (inactive); in experiment [6], > 100 µM (inactive); in experiment [7] it was > 100 µM (inactive). Also, the GI50 in experiment [8], in experiment [18], in experiment [10], in [11], in experiment [12] and in [13] was > 100 µM (inactive) in each case. In addition, the GI50 in experiment [15] is > 100 µM (inactive); in experiment [16], 52.1 µM (inactive); in [17], > 100 µM (inactive).
In the case of `C[n+]1cn(-c2nc3ccccc3nc2[N-]S(=O)(=O)c2ccccc2)c2ccccc21`, the GI50 in experiment [1] is > 100 µM (inactive); in [2], 80.7 µM (inactive); in experiment [3], > 100 µM (inactive); in experiment [5] it was > 100 µM (inactive); in [6], > 100 µM (inactive); in experiment [7] it was > 100 µM (inactive). The GI50 in [8], in experiment [18], in experiment [9], in experiment [10], in experiment [11] and in experiment [19] was > 100 µM (inactive) throughout. The GI50 in experiment [12], in experiment [13], in experiment [20], in [14], in experiment [15] and in experiment [16] was > 100 µM (inactive) in each case. The GI50 in experiment [17] was > 100 µM (inactive).
On to `O=C1/C(=C/c2ccccc2)CN(C(=O)OCc2ccccc2)C/C1=C\c1ccccc1`, for which the GI50 in experiment [1] was 8.07 µM (inactive); in experiment [2], 14.6 µM (inactive); in [3], 18.3 µM (inactive); in experiment [4] it was 54.8 µM (inactive); in experiment [5] it was > 31.6 µM (inactive); in experiment [6] it was 1.81 µM (inactive). The GI50 was 5.47 µM (inactive) in [7]; 17.8 µM (inactive) in [8]; 6.43 µM (inactive) in [18]; 4.76 µM (inactive) in [9]; 13.8 µM (inactive) in [10]; 1.53 µM (inactive) in experiment [19]. The GI50 in experiment [12] is 18.1 µM (inactive); in experiment [13], 11.5 µM (inactive); in [20], 1.79 µM (inactive); in experiment [14], > 69.5 µM (inactive); in experiment [15], 11.6 µM (inactive); in experiment [16], 12.8 µM (inactive). In addition, the GI50 in experiment [17] was 12.5 µM (inactive).
`COc1cccc(/C=C2/Sc3scc(-c4ccccc4)[n+]3C2=O)c1O`: the GI50 in experiment [1] is 26 µM (inactive); in [2], 13.3 µM (inactive); in experiment [3], 16.1 µM (inactive); in [4] it was 22.1 µM (inactive); in experiment [5], 28.6 µM (inactive); in experiment [6], 18.1 µM (inactive). For the same molecule, the GI50 in [7] is 18.6 µM (inactive); in experiment [8], 23.5 µM (inactive); in experiment [18] it was 15.5 µM (inactive); in [9], 16.2 µM (inactive); in experiment [10] it was 17.9 µM (inactive); in experiment [11] it was 17.7 µM (inactive). For the same molecule, the GI50 in experiment [12] was 21.3 µM (inactive); in experiment [13] it was 15.2 µM (inactive); in experiment [20] it was 11.9 µM (inactive); in [14] it was 15.3 µM (inactive); in experiment [15] it was 29.6 µM (inactive); in experiment [16] it was 37.3 µM (inactive). For the same molecule, the GI50 in experiment [17] is 18.4 µM (inactive).
Turning to `CC(NC(=O)C(Cc1ccc(OC(=O)c2ccccc2)cc1)NC(=O)OC(C)(C)C)C(=O)NC(Cc1ccccc1)C(=O)NCC(N)=O` (configuration not stated) (Boc-Y(Bz)AFG-NH2; configuration not given here), the GI50 in experiment [1] was 17.9 µM (inactive); in experiment [2], 18.8 µM (inactive); in [3] it was 24.9 µM (inactive); in [4], 20.4 µM (inactive); in [5], 22.8 µM (inactive); in experiment [6], 31.1 µM (inactive). Besides, the GI50 in experiment [7] was 35.8 µM (inactive); in experiment [8] it was 19.4 µM (inactive); in experiment [18], 19.5 µM (inactive); in experiment [9], 22 µM (inactive); in experiment [10] it was 21.1 µM (inactive); in experiment [11] it was > 100 µM (inactive). For the same molecule, the GI50 in experiment [12] is > 100 µM (inactive); in experiment [13], 20.3 µM (inactive); in [20], 25.6 µM (inactive); in experiment [14], 23.6 µM (inactive); in [15] it was 20.9 µM (inactive); in [16], 18.7 µM (inactive). Further, the GI50 in experiment [17] is 23 µM (inactive).
With `Cc1c2c(OCC(O)CN3CCN(c4ccccc4)CC3)nn(C)c(=O)c2c(C)n1-c1ccccc1` (configuration not stated), the GI50 in experiment [1] was 16.3 µM (inactive); in experiment [2], 18.9 µM (inactive); in experiment [3] it was 19.2 µM (inactive); in [4], 37.9 µM (inactive); in experiment [5], 19.8 µM (inactive); in [6] it was 29.9 µM (inactive). Besides, the GI50 was 29.3 µM (inactive) in [7]; 25.6 µM (inactive) in [8]; 18.4 µM (inactive) in [18]; 18.5 µM (inactive) in experiment [10]; 24.6 µM (inactive) in experiment [11]; 31.6 µM (inactive) in experiment [12]. In addition, the GI50 in experiment [13] was 18.8 µM (inactive); in experiment [20], 20.1 µM (inactive); in [14], 44.4 µM (inactive); in experiment [15], 30.3 µM (inactive); in [16], 21.5 µM (inactive); in experiment [17], 20.6 µM (inactive).
As for `CC(=O)OCc1nc(C#N)c(N)o1`, the GI50 in experiment [2], in experiment [4], in experiment [6], in experiment [7], in experiment [8] and in experiment [18] was > 100 µM (inactive) each time. Besides, the GI50 in experiment [9], in experiment [10], in [19], in experiment [12], in experiment [13] and in experiment [20] was > 100 µM (inactive) in each case. Further, the GI50 in experiment [14], in [15], in experiment [16] and in experiment [17] was > 100 µM (inactive) in each case.
Turning to `N#Cc1cnc(-n2[nH]c3c(c2=O)CCCC3)[nH]c1=O`, the GI50 is 38.1 µM (inactive) in experiment [1]; 38.5 µM (inactive) in [2]; 43.9 µM (inactive) in experiment [3]; 64.1 µM (inactive) in experiment [4]; 0.264 µM (active) in [5]; 50 µM (inactive) in [6]. Besides, the GI50 was 21.8 µM (inactive) in experiment [7]; 39.9 µM (inactive) in [8]; 39.8 µM (inactive) in experiment [18]; 44.2 µM (inactive) in experiment [10]; 23.8 µM (inactive) in experiment [19]; 39.2 µM (inactive) in experiment [12]. Further, the GI50 in [13] was 49.2 µM (inactive); in experiment [20], 34.8 µM (inactive); in experiment [14], 35.2 µM (inactive); in [15] it was 83.9 µM (inactive); in [16], 40.3 µM (inactive); in experiment [17], 47.2 µM (inactive).
Consider `OCC(O)C(O)C(C=NNc1ncnc2ccc(Br)cc12)=NNc1ncnc2ccc(Br)cc12` (configuration not stated), for which the GI50 is 1.62 µM (inactive) in experiment [1]; 2.78 µM (inactive) in experiment [2]; 1.94 µM (inactive) in experiment [3]; 1.34 µM (inactive) in experiment [4]; 2.46 µM (inactive) in experiment [5]; 0.809 µM (active) in experiment [6]. The GI50 is 2.72 µM (inactive) in [7]; 1.88 µM (inactive) in experiment [8]; 0.378 µM (active) in [18]; 0.745 µM (active) in experiment [9]; 2.39 µM (inactive) in experiment [10]; 0.492 µM (active) in experiment [19]. In addition, the GI50 in experiment [12] was 0.83 µM (active); in [13], 0.834 µM (active); in [20], 0.282 µM (active); in experiment [14], 2.24 µM (inactive); in experiment [15] it was 0.383 µM (active); in experiment [16], 3.25 µM (inactive). In addition, the GI50 in experiment [17] is 0.729 µM (active).
